From patent publication US20250186405A1, “Compound For Use In Treating Narcolepsy” (Alkermes, Inc., priority 2023, published 2025)

Test system: healthy adult subjects
Assay: Part 1 SAD: treatment-emergent adverse events after single oral dose (N = 6 per dose)
Method: Part 1 of the study is a SAD evaluation in healthy subjects consisting of 6 cohorts: Cohorts 1-6 received powder-in-capsule or matching placebo. There were approximately 8 subjects per cohort. Dose levels were as follows:
No food was given for at least 4 hours after dose administration. Water was allowed ad libitum except for the time 1 hour before and 1 hour after study drug administration. Safety assessments including AEs, safety ECGs, vital signs, and clinical laboratory tests were conducted, and plasma PK samples were collected.
Adverse events (AEs) and serious adverse events (SAEs) were monitored continuously until the completion of the study.

For `CS(=O)(=O)N[C@H]1CCCN2C(=O)COc3ccccc3C3CCC(CC3)OCC12` (stereo partly drawn) [Compound A, N-[(4S,4aR,7α,10α)-1,2,3,4,4a,5,7,8,9,10,16,17-dodecahydro-17-oxo-7,10-ethanopyrido[1,2-d][1,7,4]benzodioxaazacyclotridecin-4-yl]methanesulfonamide], the “AE Leading to Study Drug Discontinuation” value (1 mg) was 0 n, the “Any SAEs” value (1 mg) was 0 n and the “Any TEAE” value (1 mg) was 4 n. The Death (1 mg) was 0 n, the “TEAE Anxiety” value (1 mg) was 0 n and the “TEAE Aspartate aminotransferase increased” value (1 mg) was 0 n. For the same compound, the “TEAE Back pain” value (1 mg) was 0 n, the “TEAE Blood pressure increased” value (1 mg) was 0 n and the “TEAE Dermatitis contact” value (1 mg) was 1 n. The “TEAE Dizziness” value (1 mg) was 0 n, the “TEAE Fatigue” value (1 mg) was 0 n and the “TEAE Headache” value (1 mg) was 0 n. The “TEAE Hot flush” value (1 mg) was 0 n, the “TEAE Hypervigilance” value (1 mg) was 0 n and the “TEAE Insomnia” value (1 mg) was 0 n. For the same compound, the “TEAE Metamorphopsia” value (1 mg) was 0 n, the “TEAE Nausea” value (1 mg) was 0 n and the “TEAE Oropharyngeal pain” value (1 mg) was 0 n. The “TEAE Pharyngitis” value (1 mg) was 1 n, the “TEAE Pollakiuria” value (1 mg) was 0 n and the “TEAE Skin hyperpigmentation” value (1 mg) was 1 n. The “TEAE Upper respiratory tract infection” value (1 mg) was 0 n, the “TEAE Urinary incontinence” value (1 mg) was 0 n and the “TEAE Vision blurred” value (1 mg) was 0 n. For the same compound, the “TEAE by Highest Relationship: Not Related” value (“TEAE … Not Related” below) (1 mg) was 4 n, the “TEAE by Highest Relationship: Related” value (1 mg) was 0 n and the “TEAE by Highest Severity: Mild” value (1 mg) was 1 n. The “TEAE by Highest Severity: Moderate” value (1 mg) was 3 n, the “TEAE by Highest Severity: Severe” value (1 mg) was 0 n and the “AE Leading to Study Drug Discontinuation” value (3 mg) was 0 n. For the same compound, the “Any SAEs” value (3 mg) was 0 n, the “Any TEAE” value (3 mg) was 0 n and the Death (3 mg) was 0 n. The “TEAE Anxiety” value (3 mg) was 0 n, the “TEAE Aspartate aminotransferase increased” value (3 mg) was 0 n and the “TEAE Back pain” value (3 mg) was 0 n. The “TEAE Blood pressure increased” value (3 mg) was 0 n, the “TEAE Dermatitis contact” value (3 mg) was 0 n and the “TEAE Dizziness” value (3 mg) was 0 n. For the same compound, the “TEAE Fatigue” value (3 mg) was 0 n, the “TEAE Headache” value (3 mg) was 0 n and the “TEAE Hot flush” value (3 mg) was 0 n. The “TEAE Hypervigilance” value (3 mg) was 0 n, the “TEAE Insomnia” value (3 mg) was 0 n and the “TEAE Metamorphopsia” value (3 mg) was 0 n. For the same compound, the “TEAE Nausea” value (3 mg) was 0 n, the “TEAE Oropharyngeal pain” value (3 mg) was 0 n and the “TEAE Pharyngitis” value (3 mg) was 0 n. For the same compound, the “TEAE Pollakiuria” value (3 mg) was 0 n, the “TEAE Skin hyperpigmentation” value (3 mg) was 0 n and the “TEAE Upper respiratory tract infection” value (3 mg) was 0 n. For the same compound, the “TEAE Urinary incontinence” value (3 mg) was 0 n, the “TEAE Vision blurred” value (3 mg) was 0 n and the “TEAE … Not Related” value (3 mg) was 0 n. For the same compound, the “TEAE by Highest Relationship: Related” value (3 mg) was 0 n, the “TEAE by Highest Severity: Mild” value (3 mg) was 0 n and the “TEAE by Highest Severity: Moderate” value (3 mg) was 0 n. The “TEAE by Highest Severity: Severe” value (3 mg) was 0 n, the “AE Leading to Study Drug Discontinuation” value (8 mg) was 0 n and the “Any SAEs” value (8 mg) was 0 n. For the same compound, the “Any TEAE” value (8 mg) was 1 n, the Death (8 mg) was 0 n and the “TEAE Anxiety” value (8 mg) was 0 n. For the same compound, the “TEAE Aspartate aminotransferase increased” value (8 mg) was 0 n, the “TEAE Back pain” value (8 mg) was 0 n and the “TEAE Blood pressure increased” value (8 mg) was 0 n. The “TEAE Dermatitis contact” value (8 mg) was 0 n, the “TEAE Dizziness” value (8 mg) was 0 n and the “TEAE Fatigue” value (8 mg) was 0 n. The “TEAE Headache” value (8 mg) was 0 n, the “TEAE Hot flush” value (8 mg) was 0 n and the “TEAE Hypervigilance” value (8 mg) was 0 n. For the same compound, the “TEAE Insomnia” value (8 mg) was 0 n, the “TEAE Metamorphopsia” value (8 mg) was 0 n and the “TEAE Nausea” value (8 mg) was 0 n. The “TEAE Oropharyngeal pain” value (8 mg) was 0 n, the “TEAE Pharyngitis” value (8 mg) was 0 n and the “TEAE Pollakiuria” value (8 mg) was 0 n. The “TEAE Skin hyperpigmentation” value (8 mg) was 0 n, the “TEAE Upper respiratory tract infection” value (8 mg) was 1 n and the “TEAE Urinary incontinence” value (8 mg) was 0 n. For the same compound, the “TEAE Vision blurred” value (8 mg) was 0 n, the “TEAE … Not Related” value (8 mg) was 1 n and the “TEAE by Highest Relationship: Related” value (8 mg) was 0 n. The “TEAE by Highest Severity: Mild” value (8 mg) was 1 n, the “TEAE by Highest Severity: Moderate” value (8 mg) was 0 n and the “TEAE by Highest Severity: Severe” value (8 mg) was 0 n. The “AE Leading to Study Drug Discontinuation” value (15 mg) was 0 n, the “Any SAEs” value (15 mg) was 0 n and the “Any TEAE” value (15 mg) was 4 n. The Death (15 mg) was 0 n, the “TEAE Anxiety” value (15 mg) was 1 n and the “TEAE Aspartate aminotransferase increased” value (15 mg) was 0 n. For the same compound, the “TEAE Back pain” value (15 mg) was 0 n, the “TEAE Blood pressure increased” value (15 mg) was 0 n and the “TEAE Dermatitis contact” value (15 mg) was 0 n. For the same compound, the “TEAE Dizziness” value (15 mg) was 2 n, the “TEAE Fatigue” value (15 mg) was 0 n and the “TEAE Headache” value (15 mg) was 0 n. For the same compound, the “TEAE Hot flush” value (15 mg) was 1 n, the “TEAE Hypervigilance” value (15 mg) was 1 n and the “TEAE Insomnia” value (15 mg) was 1 n.
